For the assay, the system named is SARS-CoV-2 target genes E gene, RdRP gene and human RP (positive control). Briefly: RT-qPCR amplification (YouSeq E-RdRP kit) in the presence of lysis agents: test for PCR inhibition. The class given is biochemical. The settings on record: for qPCR amplification curves, FIG. 4: 2%-0.2% agent; for qPCR amplification curves, FIG. 5: 0.2% and 0.06% agent; for inhibition of amplification (summary of FIGS. 4 and 5): agents tested at 2%, 0.6%, 0.2% and 0.02%, 45 cycles. As for the experimental part:
An E-RdRP kit from YouSeq was used, which is designed to detect SARS-CoV-2, and includes a positive control containing the SARS-CoV-2 target genes E gene, RdRP gene and human RP (as an internal control). Each reaction included: • 10 μL MasterMix • 1 μL Primer/Probe • 3 μL Water • 1 μL Template or Water • 5 μL Buffers
PCR was carried out under the following conditions: • 55 C for 10 mins RT Step • 95 C for 3 mins denaturation • x45 Cycles • 95 C for 15 secs • 60 C for 60 secs
Amplification was monitored using a Quantstudio Q5.
(In general: In qPCR the cycle at which signal appears reflects the starting amount.)

Regarding `CC(C)=CCCC(C)=CC=O` [citral], the “qPCR amplification curves, FIG. 4” value is given as “clear inhibitory effect between 2%-0.2%”; the “qPCR amplification curves, FIG. 5” value is “no significant inhibition”; the “inhibition of amplification (summary of FIGS. 4 and 5)” value is reported as “inhibit at higher concentrations”.

Take `[H]/N=C(\N/C(=N/[H])NCCCCCCNC(=N)NC(=N)Nc1ccc(Cl)cc1)Nc1ccc(Cl)cc1` [chlorhexidine]: the “qPCR amplification curves, FIG. 4” value is on record as “Clear PCR inhibitions”; the “qPCR amplification curves, FIG. 5” value was “no significant inhibition”; the “inhibition of amplification (summary of FIGS. 4 and 5)” value was “inhibit at higher concentrations”.

These data come from patent US20240278234A1, “SAMPLE PREPARATION” (priority 2021, published 2024).
